Assays:
[1] = parameters: species or system human; settings: in vivo
From the text: Normal volunteers with no evidence or history of diabetes mellitus or of cardiac, liver, renal or pulmonary diseases were studied. The subjects consisted of 3 males and 1 female, ranging in age from 31 to 37 years, in body weight from 47 to 92 kg, and in body mass index (BMI) from 19.2 to 25.5. The purpose and possible risks of the study were explained to all subjects, and their voluntary written consent was obtained. The study protocol was approved by the Committee for the Protection of Human Subjects of the Institutional Review Board at Vanderbilt University School of Medicine. All studies were performed at the Clinical Research Center (CRC). Subjects were placed on balanced weight-maintenance diets for at least one week before the start of the study. Meat was excluded from the subjects' diets for three days before the study and during the study.
All studies were performed after a 10-12 hour overnight fast. On the morning of the experiment (6.30 to 7.00 hours), an 18-gauge Angiocatheter™ (Benton Dickinson, Sandy, Utah) was placed in a superficial hand vein of the nondominant arm for blood sampling. The hand was heated to 55° C. to ensure complete arterialization (Abumrad, N.N. et al., "Use of a heated superficial hand vein as an alternative site for the measurement of amino acid concentrations and for the study of glucose and alanine kinetics in man," Metabolism (1981) 30:936-940). In addition, a 16-gauge angiocatheter was inserted into the contralateral forearm vein for the infusion of L-3-[methyl-^2 H3 ]-histidine (MSD Isotopes, Montreal, Canada). Finally, another catheter was threaded retrograde into the brachial vein of the dominant arm and used for sampling of the forearm tissue.
Each study was four days in duration. Starting at t=0 (8.00 hours), subjects were administered a bolus infusion of L-3-[methyl^2 H3 ]-histidine (D3 -3-methylhistidine) at 0.13 μmol/kg into the forearm vein of the dominant arm. The infusate was passed through a Millex-GS sterilizing filter (0.22 μm; Millipore Products Divisions, Bedford, Mass.) before the infusion. Blood samples were obtained from the superficial hand vein and from the deep forearm vein at 0, 1, 2, 5, 10, 15, 30, 45, 90, 150, 210, 270, 330, and 720 min. postinjection. During this time, the subjects were required to stay at the Clinical Research Center, although they were allowed to ambulate freely within their rooms. Free access to food and drink was allowed after the 330-min sample. After 720 min, the catheters were removed and the patients were allowed to go home. For the following three days, the subjects returned to the CRC each morning before eating for further blood sampling by percutaneous venous puncture at 1,440, 2,880, and 4,320 min postinjection. Urine was collected over 24 hour periods the day before and for three days after tracer infusion.
Blood was collected in heparinized syringes, transferred to tubes containing Na2 EDTA (15 mg/tube), and centrifuged. The plasma obtained was immediately placed on ice. An aliquot of the plasma was processed for determination of 3-methylhistidine concentration as well as the L-3-[methyl-^2 H3 ]-histidine:3-methylhistidine isotope enrichment. The remainder of the plasma was frozen at -70° C. The urine obtained was processed for the determination of creatinine both as a measure of the completeness of the collection (Pencharz, P. B. et al., "The effect of an energy-restricted diet on the protein metabolism of obese adolescents: nitrogen-balance and whole-body nitrogen turnover," Clin. Sci. (1980) 59:13-18), and for the estimation of lean body mass (Blackburn, G. L. et al., "Nutritional and metabolic assessment of hospitalized patients," J. Parenter. Enteral. Nutr. (1977) 1:11-22). […]

[2] = in vivo
Experimental: The diversity of models between cattle, dogs and humans and sheep and pigs reflects differences in known physiology. In each species the tracer is injected into compartment 1 which, based on size (volume and mass), is similar to plasma and extracellular water space. Compartment 1 was the sampling compartment and the compartment from which the steady state calculations were initiated. All models for each species can be resolved by sampling only plasma, except in sheep--the model in FIG. 4 required the sampling of plasma and urine. However, the sheep model can be resolved from plasma kinetics of 3-methylhistidine if the rate of exit from compartment 1 is fixed. From the steady state calculations the de novo production of 3-methylhistidine was obtained into compartment 3 for humans, cattle and dogs and into compartment 2 for sheep and pigs. The de novo production of 3-methylhistidine could be placed as an entry into compartment 2 and an identical rate calculated. The compartment identity of compartment 2 and 3 is intracellular pools of 3-methylhistidine. The metabolic form of 3-methylhistidine in these compartments may not be identical nor is the identity of compartment 2 or 3 for one species the same identity for another species (i.e., cattle vs. sheep). The models also depict differences in the route by which 3-methylhistidine exits the system. […]

[3] = Safety and excretion of administered D3-3-methylhistidine; settings: small quantities administered
[4] = in vivo; remark: listed apart in the source
[5] = adult human; cited from earlier work
[6] = rat; cited from earlier work

Molecule | Decay of D3-3-methylhistidine:3-methylhistidine ratio in plasma [1] | Exponential decay curve of tracer [2] | Toxicity [3] | Urinary excretion [4] | Share of daily 3-methylhistidine excreted [5] | Form excreted in urine [6]
[2H]C([2H])([2H])n1cnc(C[C@H](N)C(=O)O)c1 [D3-3-methylhistidine, 3-[^2 H3-methyl]-methylhistidine] | rapid decrease in the D3- 3-methylhistidine:3-methylhistidine ratio during the first 5 hours followed by a slow linear (semilog plot) decay over the three days of blood sampling | rapid decay over the first 2-3 hours, followed by a slower decay through 12 hours, and a steady state decay over the remainder of the study | non-toxic | quantitatively excreted in urine | – | –
N-acetyl-3-methylhistidine | – | – | – | – | less than 5% | major form excreted in the rat

Source: US5628328A, “Method for measuring muscle mass” (priority 1995, dated 1997)
